The values below come from BindingDB's records for doi:10.1016/j.bmc.2009.03.061 (Gsk, 2009).

The target in assay [1] is cAMP-specific 3',5'-cyclic phosphodiesterase 4B (Homo sapiens, UniProt Q07343). Briefly: Enzyme Inhibition Assay. As to conditions: pH 7.5; 23 °C. How it is done:
(§1) Inhibition of PDE4 is measured using a luminescence-coupled assay system developed by Cambrex. This assay system couples the formation of AMP, derived from PDE4-catalyzyed hydrolysis of cAMP, to the formation of ATP. The ATP is then used as a substrate for Luciferase and results in light as a signal output. […] This assay is used in a quenched assay format, where PDE4 enzyme and cAMP substrate are added sequentially to a 384 well assay plate (Greiner784075) pre-stamped with compound at the desired concentration. The reaction is incubated at room temperature for 1 h, and then is quenched by the addition of enzyme stop solution and then the light signal is generated by the addition of detection reagent. […] For inhibition curves, compounds were diluted using a 3-fold serial dilution and tested at 11 concentrations. Curves were analysed as describe above using ActivityBase and XLfit , and results were expressed as pIC50 values.

In assay [2] the target is cAMP-specific 3',5'-cyclic phosphodiesterase 4D (Homo sapiens, UniProt Q08499). Briefly: Enzyme Inhibition Assay. As to conditions: pH 7.5; 23 °C. How it is done:
as §1

Chain of cAMP-specific 3',5'-cyclic phosphodiesterase 4B (Q07343 whole entry): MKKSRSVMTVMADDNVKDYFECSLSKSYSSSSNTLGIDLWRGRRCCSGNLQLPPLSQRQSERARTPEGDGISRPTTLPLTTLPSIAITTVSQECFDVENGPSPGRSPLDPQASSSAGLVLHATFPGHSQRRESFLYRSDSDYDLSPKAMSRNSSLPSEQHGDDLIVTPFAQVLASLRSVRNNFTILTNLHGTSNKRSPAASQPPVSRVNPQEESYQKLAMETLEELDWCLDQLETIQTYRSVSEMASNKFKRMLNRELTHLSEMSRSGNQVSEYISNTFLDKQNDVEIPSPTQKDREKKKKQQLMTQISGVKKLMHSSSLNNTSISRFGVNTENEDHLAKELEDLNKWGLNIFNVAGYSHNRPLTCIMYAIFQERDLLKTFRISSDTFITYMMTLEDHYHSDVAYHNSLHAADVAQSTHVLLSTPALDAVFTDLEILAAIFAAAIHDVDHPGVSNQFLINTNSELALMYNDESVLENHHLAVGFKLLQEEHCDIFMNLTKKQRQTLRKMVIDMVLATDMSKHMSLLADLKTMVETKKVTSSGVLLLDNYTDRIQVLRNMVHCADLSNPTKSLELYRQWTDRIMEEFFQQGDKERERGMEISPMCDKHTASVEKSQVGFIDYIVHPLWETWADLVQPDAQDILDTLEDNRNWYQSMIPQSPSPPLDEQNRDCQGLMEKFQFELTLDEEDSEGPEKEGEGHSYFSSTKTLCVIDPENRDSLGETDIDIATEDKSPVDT
Chain of cAMP-specific 3',5'-cyclic phosphodiesterase 4D (Q08499 whole entry): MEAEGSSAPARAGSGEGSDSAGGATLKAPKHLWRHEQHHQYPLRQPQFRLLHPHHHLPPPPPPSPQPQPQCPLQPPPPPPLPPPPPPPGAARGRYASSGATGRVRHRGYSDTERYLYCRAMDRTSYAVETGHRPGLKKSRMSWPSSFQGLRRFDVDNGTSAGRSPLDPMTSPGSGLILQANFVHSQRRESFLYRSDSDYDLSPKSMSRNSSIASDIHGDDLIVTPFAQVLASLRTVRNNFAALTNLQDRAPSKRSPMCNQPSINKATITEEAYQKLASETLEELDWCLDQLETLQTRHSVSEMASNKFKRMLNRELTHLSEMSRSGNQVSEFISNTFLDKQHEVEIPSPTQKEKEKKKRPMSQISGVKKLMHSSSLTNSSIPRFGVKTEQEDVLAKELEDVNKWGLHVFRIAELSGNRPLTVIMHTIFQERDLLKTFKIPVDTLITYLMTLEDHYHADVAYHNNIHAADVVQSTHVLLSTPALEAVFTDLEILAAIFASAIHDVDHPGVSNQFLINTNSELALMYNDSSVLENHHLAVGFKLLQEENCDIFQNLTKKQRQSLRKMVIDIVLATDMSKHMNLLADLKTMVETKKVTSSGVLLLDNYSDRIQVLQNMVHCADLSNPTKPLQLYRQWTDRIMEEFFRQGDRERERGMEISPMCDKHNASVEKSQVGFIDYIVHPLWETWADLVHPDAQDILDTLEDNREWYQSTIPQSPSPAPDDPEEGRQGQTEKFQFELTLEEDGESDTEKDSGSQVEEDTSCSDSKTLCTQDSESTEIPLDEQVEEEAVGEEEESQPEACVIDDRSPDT

Take `Cc1cccc(C)c1C(=O)C1CCCc2sc(NC(=O)c3ccccc3[N+](=O)[O-])c(C(N)=O)c21` (centres undefined) [tetrahydrobenzothiophene (THBT), 18]: the IC50 – broadly, the concentration that inhibits the measured activity by half – in assay [1] was 5010 nM; in assay [2], 2510 nM.
As for `CCCC1CCc2c(sc(NC(=O)c3ccccc3[N+](=O)[O-])c2C(N)=O)C1` (centres undefined) [tetrahydrobenzothiophene (THBT), 24], the half-maximal inhibitory concentration (IC50) in assay [1] is 100 nM; in assay [2], 2510 nM.
